Results as given in patent US20240209028A1, “CNP COMPOUNDS” (priority 2022, published 2024).
Starred links: 1 amine or outer side, 2 acyl side, 3 side chain; linkers in the order of their positions; H or OH if unused. Positions of bridges follow the written chain, without caps; N, C: chain ends. Residues, ends and D or L forms follow the SMILES beside them. *: point of attachment. C18 diacid = O=C(O)CCCCCCCCCCCCCCCCC(=O)*; γGlu = O=C(O)[C@H](CCC(=O)[*:2])N[*:1]; AEEA = NCCOCCOCC(=O)O

How the values were obtained:
[1] = Local tolerance of CNP compounds in rats (s.c. injection, histopathology); type: in vivo, Sprague Dawley rat; settings: rat, s.c. 350 μl, about 1000 nmol/ml, 5 days post injection
Outline: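 Male Sprague Dawley rats (10-11 weeks) received two s.c. injections of 250 or 350 uL compound (1000 nmol/mL formulation) in neck or flank, 120 h before necropsy; vehicle 5 mM sodium acetate/250 mM glycerol pH 4.0 or 8 mM sodium phosphate/250 mM glycerol pH 7.4. Injection sites were scored macroscopically, H&E-stained and graded on a 5-level scale (Min to Sev).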

[2] = CNP local tolerance study in LYD pigs (s.c. injection, histopathology); type: in vivo, domestic LYD pig; settings: LYD pig, s.c., approx. 4400 μM, 4 or 5 days after injection
Outline: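 Domestic pigs dosed s.c. mid-back, 100 or 200 μl at approx. 4400 μM, in phosphate pH 6.5 or acetate pH 4.0 buffers with glycerol or propylene glycol; saline as negative control. Sites excised 4 or 5 days post injection, H&E sections graded on 5-level scale; necrosis used as marker.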

neprilysin (NEP) = neprilysin (NEP) (Homo sapiens, UniProt P08473); experiment: In vitro neprilysin stability; settings: recombinant human neprilysin (rhNEP), pH 7.4
neprilysin (NEP), sequence (P08473 whole entry): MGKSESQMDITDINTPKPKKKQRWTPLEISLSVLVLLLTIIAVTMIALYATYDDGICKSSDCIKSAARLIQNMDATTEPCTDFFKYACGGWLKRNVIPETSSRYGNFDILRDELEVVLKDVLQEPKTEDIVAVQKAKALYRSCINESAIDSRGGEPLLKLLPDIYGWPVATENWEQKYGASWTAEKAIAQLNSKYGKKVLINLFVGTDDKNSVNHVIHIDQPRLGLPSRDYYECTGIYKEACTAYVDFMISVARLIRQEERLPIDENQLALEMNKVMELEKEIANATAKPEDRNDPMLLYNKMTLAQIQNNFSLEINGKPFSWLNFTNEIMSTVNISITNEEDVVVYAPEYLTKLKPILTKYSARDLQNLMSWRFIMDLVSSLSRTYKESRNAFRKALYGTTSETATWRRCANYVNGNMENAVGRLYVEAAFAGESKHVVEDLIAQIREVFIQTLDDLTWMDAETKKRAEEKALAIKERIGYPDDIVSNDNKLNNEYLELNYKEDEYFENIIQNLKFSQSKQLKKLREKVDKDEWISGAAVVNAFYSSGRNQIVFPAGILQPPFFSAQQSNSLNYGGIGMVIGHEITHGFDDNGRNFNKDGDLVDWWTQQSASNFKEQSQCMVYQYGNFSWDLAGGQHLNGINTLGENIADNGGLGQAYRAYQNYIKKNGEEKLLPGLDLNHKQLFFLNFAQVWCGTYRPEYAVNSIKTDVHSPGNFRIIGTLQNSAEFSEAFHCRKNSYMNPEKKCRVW

Compound: CC[C@H](C)[C@@H]1NC(=O)[C@H](CCCNC(=N)N)NC(=O)[C@H](CC(=O)O)NC(=O)[C@H](CC(C)C)NC(=O)[C@@H]2CCCN2C(=O)[C@H](CC(C)C)NC(=O)CNC(=O)[C@H](Cc2ccccc2)NC(=O)[C@@H](NC(=O)CNC(=O)[C@H](CCC(N)=O)NC(=O)[C@H](CO)NC(=O)[C@H](CC(C)C)NC(=O)CNC(=O)[C@H](CCCCN)NC(=O)[C@H](CCCCN)NC(=O)[C@H](CCC(N)=O)NC(=O)[C@H](C)NC(=O)CNC(=O)[C@H](CCCCN)NC(=O)[C@H](Cc2ccc(O)cc2)NC(=O)[C@H](CCCCN)NC(=O)[C@H](CCCNC(=N)N)NC(=O)[C@H](C)NC(=O)COCCOCCNC(=O)COCCOCCNC(=O)COCCOCCNC(=O)COCCOCCNC(=O)CC[C@H](NC(=O)CC[C@H](NC(=O)CC[C@H](NC(=O)CC[C@H](NC(=O)CC[C@H](NC(=O)CCCCCCCCCCCCCCCCC(=O)O)C(=O)O)C(=O)O)C(=O)O)C(=O)O)C(=O)O)CSSC[C@@H](C(=O)O)NC(=O)CNC(=O)[C@H](CC(C)C)NC(=O)CNC(=O)[C@H](CO)NC(=O)[C@H](CC(C)C)NC(=O)[C@H](CO)NC(=O)CNC1=O [Compound 9407] ({C18 diacid-γGlu-γGlu-γGlu-γGlu-γGlu-AEEA-AEEA-AEEA-AEEA}-ARKYKGAQKKGLSQGCFGLPLDRIGSLSGLGC-OH; disulfide 16-32)
- Number of injections by severity of necrosis: NAD (No Abnormalities Detected) [1]: 4
- Number of injections by severity of necrosis: Min. [2]: 1
- Number of injections by severity of necrosis: NAD [2]: 3
- remaining at 1.5 h, 1000 nM (neprilysin (NEP)): 96.6%
